The values below come from patent US8524481B2, “Hide processing methods and compositions” (priority 2010, dated 2013).

Where a name gives a salt, the structure may show the parent alone. Read-outs that look alike come from different tables or passages of the source. Square brackets hold non-standard residues; d marks the D form. Peptide text beside a SMILES is read from it. * marks the point of attachment. Sta = CC(C)C[C@H](N)[C@@H](O)CC(=O)O; Isovaleryl = CC(C)CC(=O)*

Assay [1] concerns protease from strain SRC002 (MTCC 5564). In words: Effect of inhibitors, metals and chemicals on protease activity. The conditions noted are these: for effect on protease activity: EGTA 10 mM, 1,10 Phenanthrolin 2 mM, Phosphoramidone 500 μg/ml, Antipain 20 μM, Bestatin 50 μg/ml, Chymostatin 20 μM, E-64 2 μM, Pepstatin 1 μM, Ebelacetone-B 1 μM. Type of assay: biochemical, Pseudomonas aeruginosa.

Assay [2] relates to Strain A/SRC002 (MTCC 5564). In words: Antibiotic sensitivity by disk diffusion method, Strain A. The assay is classed as cell-based, Pseudomonas aeruginosa. The conditions noted are these: Himedia antibiotic discs, Mueller Hinton Agar, 37° C. overnight. The procedure: (§1) The sensitivity of the strains against different antibiotics was determined by disk diffusion method using commercially available (Himedia) antibiotic discs. The representative of each group of antibiotic had been tested. The antibiotics used were Ampicillin (A10), Cephadroxil (Cq30), Chloramphenicol (C30), Cloxacillin (Cx30), Cephotaxime (Ce30), Ceftazidime (Ca30), Ciprofloxacin (Cf5), Doxycycline Hydrochloride (Do30), Gentamicin (G10), Metronidazole (Mt4), Neomycin (N30), Norfloxacin (Nx10), Polymyxin B (Pb100), Rifampicin (R15), Roxithromycin (Ro30), Tetracycline (T30), Trimethoprin (Tr30), Vancomycin (Va30). The concentrations of the antibiotics in microgram per disc were mentioned in parenthesis indicated above except for Polymyxin B where it is 100 units. Mueller Hinton Agar medium (Himedia-M173) was used to grow each of the microorganisms for antibiotic sensitivity test. The log phase culture of each isolate was diluted 100 times and poured on Mueller Hinton Agar (MHA) plates. It was swirled uniformly to distribute the culture throughout the plate. After waiting for 30 mins, the cultures were carefully pipetted out from the plates and the plates were allowed to dry. Then the antibiotic disks were placed onto the MHA surface using the dispenser provided with the antibiotic discs. The plates were incubated at 37° C. for overnight. The zones of inhibition were measured. The results were evaluated using National Committee for Clinical Laboratory Standard's (NCCLS) chart provided with the antibiotic discs by Himedia. The assay was repeated three times for each organism.

Another assay relates to Strain B/GZN (MTCC 5566). Briefly: Antibiotic sensitivity by disk diffusion method, Strain B. The conditions noted are these: Himedia antibiotic discs, Mueller Hinton Agar, 37° C. overnight. The assay is classed as cell-based, Pseudomonas aeruginosa. The procedure: as §1
(In agar diffusion tests the substance spreads into inoculated agar from a disc or well.)

[3] abbreviates: concentration not given, crude enzyme for the partial inhibitors.

Regarding `[Al]` [Al], the “enzyme activity retained in the presence of metal” value (“enzyme activity retained” for short) in assay [1] (concentration not given) stood at 70%. For `CC(C)CC(=O)N[C@H](C(=O)N[C@H](C(=O)N[C@@H](CC(C)C)[C@@H](O)CC(=O)N[C@@H](C)C(=O)N[C@@H](CC(C)C)[C@@H](O)CC(=O)O)C(C)C)C(C)C` [Pepstatin] (Isovaleryl-VV[Sta]A[Sta]-OH), in assay [1], the “effect on protease activity” value was “almost no effect”. Also, in assay [1] (setting [3]), the “effect on enzyme activity” value is on record as “no inhibitory effect”. As to `O=C(O)c1cn(C2CC2)c2cc(N3CCNCC3)c(F)cc2c1=O` [Ciprofloxacin], the “antibiotic sensitivity (zones of inhibition evaluated by NCCLS chart)” value is listed as “sensitive” in assay [2] and “resistant” with Strain B/GZN (MTCC 5566). The corresponding values for `CO/N=C(\C(=O)N[C@@H]1C(=O)N2C(C(=O)O)=C(COC(C)=O)CS[C@H]12)c1csc(N)n1` [Cephotaxime] are “resistant” and “intermediate response”. For `CC[C@@H](C)[C@@H](O)[C@H](C)C(=O)[C@H](C)/C=C(\C)C[C@H](C)[C@@H]1OC(=O)[C@H]1CC` [Ebelacetone-B], in assay [1], the “effect on protease activity” value is on record as “almost no effect”. Moreover, the “effect on enzyme activity” value in assay [1] (setting [3]) was “no inhibitory effect”. Regarding Polymyxin B [PolymyxinB], the “antibiotic sensitivity (zones of inhibition evaluated by NCCLS chart)” value (in assay [2]; in the assay on Strain B/GZN (MTCC 5566)) was “resistant” each time. `CC1=C(C(=O)O)N2C(=O)[C@@H](NC(=O)[C@H](N)c3ccc(O)cc3)[C@H]2SC1` [Cephadroxil]: in assay [2], the “antibiotic sensitivity (zones of inhibition evaluated by NCCLS chart)” value is reported as “resistant”. On the same count and under the same terms, the same measure for `Cc1onc(-c2ccccc2Cl)c1C(=O)N[C@@H]1C(=O)N2[C@@H]1SC(C)(C)[C@@H]2C(=O)O` [Cloxacillin]: “resistant”. `CC1(C)S[C@@H]2[C@H](NC(=O)[C@H](N)c3ccccc3)C(=O)N2[C@H]1C(=O)O` [Ampicillin]: the “antibiotic sensitivity (zones of inhibition evaluated by NCCLS chart)” value (in assay [2]; in the assay on Strain B/GZN (MTCC 5566)) was “resistant” each time. With `NC[C@@H]1O[C@H](O[C@H]2[C@@H](O)[C@H](O[C@@H]3[C@@H](O)[C@H](N)C[C@H](N)[C@H]3O[C@H]3O[C@H](CN)[C@@H](O)[C@H](O)[C@H]3N)O[C@@H]2CO)[C@H](N)[C@@H](O)[C@@H]1O` [Neomycine, Neomycin], the “antibiotic sensitivity (zones of inhibition evaluated by NCCLS chart)” value was “sensitive” in assay [2] and “intermediate response” with Strain B/GZN (MTCC 5566).

As to `[Cr]` [Cr], the “enzyme activity retained” value in assay [1] is “up to 90%”. Turning to `OCCS` [beta-merceptoethanol], the “effect on enzyme activity” value in assay [1] (setting [3]) is “partially inhibited”. On to `CN(C)[C@@H]1C(=O)C(C(N)=O)=C(O)[C@@]2(O)C(=O)C3=C(O)c4c(O)cccc4[C@@](C)(O)[C@H]3C[C@@H]12` [Tetracyclin, Tetracycline], for which the “antibiotic sensitivity (zones of inhibition evaluated by NCCLS chart)” value (in assay [2]; in the assay on Strain B/GZN (MTCC 5566)) was “resistant” in each case.

Consider `[Hg]` [Hg], for which the “effect on enzyme activity” value in assay [1] (setting [3]) is given as “complete inhibition”.

Regarding `[Ag]` [Ag], in assay [1] (concentration not given), the “enzyme activity retained” value was 76%.

On to `OO` [hydrogen peroxide], for which the “effect on enzyme activity” value in assay [1] (setting [3]) is “partially inhibited”. Turning to `O=C(O)CN(CCOCCOCCN(CC(=O)O)CC(=O)O)CC(=O)O` [EGTA], the “effect on protease activity” value in assay [1] is “completely inhibited”. The “effect on enzyme activity” value in assay [1] (setting [3]) is reported as “completely inhibited”. As to `[Co]` [Co], the “enzyme activity retained” value in assay [1] (concentration not given) was 82%.

For the compound `[Ni]` [Ni], in assay [1] (concentration not given), the “enzyme activity retained” value was 70%. Consider `Cc1ncc([N+](=O)[O-])n1CCO` [Metronidazole], for which the “antibiotic sensitivity (zones of inhibition evaluated by NCCLS chart)” value in assay [2] is given as “resistant”. Regarding `C[C@H]1c2cccc(O)c2C(=O)C2=C(O)[C@]3(O)C(=O)C(C(N)=O)=C(O)[C@@H](N(C)C)[C@@H]3[C@@H](O)[C@@H]21` [Doxycycline hydrochloride, Doxycycline Hydrochloride], the “antibiotic sensitivity (zones of inhibition evaluated by NCCLS chart)” value (in assay [2]; in the assay on Strain B/GZN (MTCC 5566)) was “resistant” in each case. As for `CN[C@H](CC(C)C)C(=O)N[C@H]1C(=O)N[C@@H](CC(N)=O)C(=O)N[C@H]2C(=O)N[C@H]3C(=O)N[C@H](C(=O)N[C@H](C(=O)O)c4cc(O)cc(O)c4-c4cc3ccc4O)[C@H](O)c3ccc(c(Cl)c3)Oc3cc2cc(c3O[C@@H]2O[C@H](CO)[C@@H](O)[C@H](O)[C@H]2O[C@H]2C[C@](C)(N)[C@H](O)[C@H](C)O2)Oc2ccc(cc2Cl)[C@H]1O` [Vancomycin], the “antibiotic sensitivity (zones of inhibition evaluated by NCCLS chart)” value (in assay [2]; in the assay with Strain B/GZN (MTCC 5566)) was “resistant” throughout. Consider `[Pb]` [Pb], for which the “enzyme activity retained” value in assay [1] (concentration not given) is given as 50%. As for `CC(C)C[C@H](NC(=O)[C@@H](O)[C@H](N)Cc1ccccc1)C(=O)O` [Bestatin], in assay [1], the “effect on protease activity” value is “almost no effect”. Further, in assay [1] (setting [3]), the “effect on enzyme activity” value is given as “no inhibitory effect”. As to `CC(C)(O/N=C(\C(=O)N[C@@H]1C(=O)N2C(C(=O)[O-])=C(C[n+]3ccccc3)CS[C@H]12)c1csc(N)n1)C(=O)O` [Ceftazidime], the “antibiotic sensitivity (zones of inhibition evaluated by NCCLS chart)” value in assay [2] was “resistant”; with Strain B/GZN (MTCC 5566) it was “intermediate response”.

With Triton X 100, the “effect on enzyme activity” value in assay [1] (setting [3]) was “partially inhibited”. Consider `O=C(O)CN(CCN(CC(=O)O)CC(=O)O)CC(=O)O` [EDTA], for which the “effect on enzyme activity” value in assay [1] is recorded as “inactivated”.

Take `O=C(N[C@H](CO)[C@H](O)c1ccc([N+](=O)[O-])cc1)C(Cl)Cl` [Cloramphenicol, Chloramphenicol]: the “antibiotic sensitivity (zones of inhibition evaluated by NCCLS chart)” value is recorded as “resistant” in assay [2] and “intermediate response” in the assay with Strain B/GZN (MTCC 5566).

With `[Zn]` [Zn], in assay [1] (concentration not given), the “enzyme activity retained” value is 34%. For `CC(C)C[C@H](NC(=O)[C@H]1O[C@@H]1C(=O)O)C(=O)NCCCCN=C(N)N` [Strain E-64, E-64], the “effect on protease activity” value in assay [1] is given as “almost no effect”. Also, the “effect on enzyme activity” value in assay [1] (setting [3]) is reported as “no inhibitory effect”. With `COc1cc(Cc2cnc(N)nc2N)cc(OC)c1OC` [Trimethoprim], the “antibiotic sensitivity (zones of inhibition evaluated by NCCLS chart)” value in assay [2] was “resistant”; with Strain B/GZN (MTCC 5566) it was “intermediate response”. Turning to `[Cu]` [Cu], the “enzyme activity retained” value in assay [1] (concentration not given) came to 50%. Consider `CC(C)C[C@H](NP(=O)(O)O[C@@H]1O[C@@H](C)[C@H](O)[C@@H](O)[C@H]1O)C(=O)N[C@@H](Cc1c[nH]c2ccccc12)C(=O)O` [Phosphoramidone], for which the “effect on protease activity” value in assay [1] is given as “completely inhibited”. The “effect on enzyme activity” value in assay [1] (setting [3]) was “completely inhibited”. On to `[Cd]` [Cd], for which, in assay [1] (concentration not given), the “enzyme activity retained” value is recorded as 34%. For the compound Gentamicin [Gentamycine], the “antibiotic sensitivity (zones of inhibition evaluated by NCCLS chart)” value is “resistant” in assay [2] and “sensitive” with Strain B/GZN (MTCC 5566).

On to `CC(C)C[C@H](NC(=O)[C@@H](NC(=O)N[C@@H](Cc1ccccc1)C(=O)O)[C@@H]1CCN=C(N)N1)C(=O)N[C@H](C=O)Cc1ccccc1` [Chymostatin], for which the “effect on protease activity” value in assay [1] is given as “almost no effect”. The “effect on enzyme activity” value in assay [1] (setting [3]) is “no inhibitory effect”. The matching figures for `c1cnc2c(c1)ccc1cccnc12` [1,10 Phenanthrolin]: “completely inhibited” and “completely inhibited”. In the case of `CCn1cc(C(=O)O)c(=O)c2cc(F)c(N3CCNCC3)cc21` [Norfloxacine, Norfloxacin], the “antibiotic sensitivity (zones of inhibition evaluated by NCCLS chart)” value in assay [2] is given as “sensitive”; in the assay with Strain B/GZN (MTCC 5566), “resistant”.
